For 56 compounds, efficacy and AC50 cell viability results are on record in the supplement of paper PMC10290057.

Molecules are shown by their SMILES.

Assay [1] concerns HCT116. In words: efficacy (fitted maximal change in viability relative to DMSO control); higher = less cytotoxic (negative = loss of viability). The note with it: 48 h.
For assay [2], the system named is HCT116. In words: AC50 cell viability (CellTiter-Glo); higher = less potent. The conditions noted are these: 48 h.
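For AC50 cell viability (CellTiter-Glo) in this document: HCT116 colorectal carcinoma cells screened at five concentrations per compound, luminescent viability scaled between DMSO wells and empty wells on each plate, curves fitted per compound.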
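For efficacy (fitted maximal change in viability relative to DMSO control) in this document: Luminescence-based viability readout, five doses per compound, normalized against on-plate DMSO and empty-well controls, followed by dose-response curve fitting for every drug.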

`C=CC(=O)Nc1ccc2ncnc(Nc3cccc(Br)c3)c2c1`: in the assay with HCT116 [1], the efficacy is -86.8%. Moreover, the AC50 cell viability with HCT116 [2] came to 13.2 µM.
For `c1ccc2c(-c3cnn4cc(-c5ccc(N6CCNCC6)cc5)cnc34)ccnc2c1` the same measures were -104% and 2.35 µM.
The matching figures for `C/C(=N\NC(=S)N1CCC1)c1ccccn1`: -85.2% and 0.0295 µM.
For `CC(=O)Nc1ccc([C@H](C)C(=O)Nc2ncc(C(C)C)s2)cc1` the same measures were -59.3% and 2.09 µM.
For `CC(C)C1=N[N](C\2=C1C(=O)N\C(=N2)CC3=CC=C(OCCO)C=C3)C4=C(Cl)C=CC=C4Cl`, the efficacy with HCT116 [1] was -63.1%. Moreover, the AC50 cell viability in the assay with HCT116 [2] was 0.0295 µM.
The matching figures for `CC(C)C[C@H](NC(=O)c1cc2ccccc2s1)C(=O)N1CCN(C(=O)[C@H](CO)N[S+](=O)([O-])c2ccc(Cl)cc2Cl)CC1`: -76.8% and 16.6 µM.
For `CC(C)N(CCC(=O)c1ccc2ccccc2c1)Cc1ccccc1` the same measures were -77.8% and 20.9 µM.
For `CC(C)[C@@H](N(CCCN)C(=O)C1=CC=C(C)C=C1)C/2=C(\CC3=CC=CC=C3)C(=O)C4=C(O2)C=C(Cl)C=C4` the same measures were -34.7% and 8.33 µM.
As for `CC(C)[N]1C=C(C)C2=C1C=C(C=C2C(=O)NC\C3=C(C)\C=C(C)/NC3=O)C4=CC=C(N=C4)N5CCN(C)CC5`, the efficacy in the assay with HCT116 [1] is -96.9%. This compound yielded an AC50 cell viability with HCT116 [2] of 20.9 µM.
The matching figures for `CC(O)(C#Cc1ccc2c(c1)N(c1nc(N)ncc1Cl)CC2)c1nccs1` (configuration not stated): -76.1% and 16.6 µM.
`Cc1[nH]c(/C=C2\C(=O)Nc3ccc([S+](=O)([O-])Cc4c(Cl)cccc4Cl)cc32)c(C)c1C(=O)N1CCC[C@@H]1CN1CCCC1`: the efficacy in the assay on HCT116 [1] was -92%. This compound showed an AC50 cell viability with HCT116 [2] of 7.42 µM.
The matching figures for `Cc1ccc(-n2c(C)cc(-c3nnc4n3CCCCC4)c2C)cc1`: -47.3% and 20.9 µM.
As to `Cc1ccc([S+](=O)([O-])Nc2cc(-c3ccc(C#N)s3)ccc2C)cc1`, in the assay on HCT116 [1], the efficacy was -59.9%. Also, the AC50 cell viability in the assay on HCT116 [2] is 0.0372 µM.
The matching figures for `Cc1cccc(-c2n[nH]cc2-c2ccc(F)c(-c3cnn(CCO)c3)c2)n1`: -71.1% and 26.3 µM.
For `CCc1cc(-c2n[nH]c(C)c2-c2ccc3c(c2)OCCO3)c(O)cc1O` the same measures were -87% and 7.42 µM.
The matching figures for `CCc1ccc(N(CC(C)C)[S+](=O)([O-])c2ccc(OCC3CCOCC3)c(CO)c2)cc1`: -83.5% and 23.5 µM.
Take `CCN1C(=O)N\2CC3=CC(=CC(=C3[C@@H](C)\C=C2C14CCN(CC4)CC5=CC(=CC(=C5)C)C)OC)OC`: the efficacy with HCT116 [1] was -91.8%. The compound further registered an AC50 cell viability in the assay with HCT116 [2] of 23.5 µM.
For `CCOC\1=C(/C(=O)NC2=CC=C(OC3=C(Cl)C(=NC=C3)N)C(=C2)F)C(=O)N(\C=C1)C4=CC=C(F)C=C4`, in the assay with HCT116 [1], the efficacy is -67.3%. In the assay on HCT116 [2], the AC50 cell viability amounted to 18.6 µM.
For `CC[C@@H]1[C@H](F)C(=O)N[C@@H]1COc1nccc2cc(C(N)=O)c(OC)cc12` the same measures were -66.9% and 13.2 µM.
The matching figures for `CCn1cc(-c2ccnc3[nH]c(-c4cccc(CN(C)C)c4)cc23)c(-c2ccc(NC(=O)N(C)C)cc2)n1`: -101% and 5.25 µM.
For `CN(C)Cc1ccc(-c2nc3cccc4c3n2CCNC4=O)cc1` the same measures were -65.6% and 5.9 µM.
Turning to `Cc1nc(Nc2n[nH]c3c2CN(C(=O)N[C@H](CN(C)C)c2ccccc2)C3(C)C)c2sccc2n1`, the efficacy in the assay with HCT116 [1] is -64.7%. Further, the AC50 cell viability in the assay on HCT116 [2] was 0.0186 µM.
For `Cc1cc(CN2CCN(c3c(Br)cnc4[nH]c(-c5ccc(N6CCN(C)CC6)cc5)nc34)CC2)no1` the same measures were -119% and 5.25 µM.
In the case of `Cc1cnc(Nc2ccc(N3CCN(C)CC3)cc2)nc1Nc1cccc([S+](=O)([O-])NC(C)(C)C)c1`, the efficacy in the assay on HCT116 [1] was -89.5%. The compound also gave an AC50 cell viability with HCT116 [2] of 1.86 µM.
For `CN1CCN([C@H]2CC[C@H](n3cc(-c4ccc(Oc5ccccc5)cc4)c4c(N)ncnc43)CC2)CC1` the same measures were -110% and 7.42 µM.
For `CNC(=O)c1ccc2c(c1)NC(=O)/C2=C(\Nc1cccc(CN(C)C)c1)c1ccccc1` the same measures were -93.1% and 18.6 µM.
In the case of `CNCCN(C)Cc1c[nH]nc1-c1ccc(O[C@H]2C[C@H](OCCC3CCOCC3)C2)cc1`, the efficacy with HCT116 [1] was -52%. Besides, the AC50 cell viability in the assay with HCT116 [2] turned out to be 18.6 µM.
The matching figures for `CN[S+]([O-])(=O)NC1=NC=CC(=C1F)CC/2=C(C)/C3=CC=C(OC4=NC=CC=N4)C=C3OC2=O`: -43.7% and 1.66 µM.
For `COC1=CC(=C2C(=O)N(COC/3=C/C(=O)N4\C=C/C=C(OCCN5CCCCC5)\C4=N3)[S+]([O-])(=O)C2=C1)C(C)C` the same measures were -84.2% and 20.9 µM.
Regarding `COc1cccc(Nc2ncnn3ccc(CN4CC[C@@H](N)[C@H](O)C4)c23)c1`, in the assay on HCT116 [1], the efficacy was -71.1%. In addition, the AC50 cell viability with HCT116 [2] is 18.6 µM.
The matching figures for `COc1cc(-c2nn(C3CCC(N4CCN(C(C)=O)CC4)CC3)c3ncnc(N)c23)ccc1NC(=O)c1cc2ccccc2n1C` (configuration not stated): -90.5% and 10.5 µM.
For `COc1ccc(-c2oc3ncnc(N)c3c2-c2ccc(NC(=O)Nc3cc(C(F)(F)F)ccc3F)cc2)cc1` the same measures were -70.5% and 4.68 µM.
For `COc1ccc(CNC(=O)Nc2ncc([N+](=O)[O-])s2)cc1` the same measures were -96.6% and 20.9 µM.
As to `COc1ccc(Cn2ccc3ccc(C(=O)NO)cc32)cc1`, the efficacy in the assay with HCT116 [1] is -71.9%. The same compound yielded an AC50 cell viability in the assay on HCT116 [2] of 16.6 µM.
Regarding `COc1ccc(Oc2cc(NCCC(F)(F)F)c3ncc(-c4ccc(C(=O)NC5CC5)c(C)c4)n3n2)c(F)c1F`, in the assay with HCT116 [1], the efficacy was -56.8%. The same compound had an AC50 cell viability in the assay on HCT116 [2] of 0.372 µM.
For `C[C@@H]1COCCN1c1cc(-c2ccnn2C)c2ccnc(-c3ccn[nH]3)c2n1` the same measures were -70.3% and 0.525 µM.
The matching figures for `C[C@@H](C(=O)Nc1ccc(Cl)cc1)[C@H]1CC[C@@H](c2ccnc3ccc(F)cc32)CC1`: -47.3% and 18.6 µM.
The matching figures for `C[C@H]1CN(C[C@@H](C)O1)CC(=O)NC2=CC=C3SC4=C(CC3=C2)C=CC=C4\C5=C\C(=O)\C=C(/O5)N6CCOCC6`: -51.9% and 5.9 µM.
Consider `C[N]1C=C(C=N1)C2=CC=C3N=CC\4=C(N(C(=O)\C=C4)C5=CC6=C(CCN6C(=O)C=C)C=C5)C3=C2`, for which the efficacy in the assay on HCT116 [1] was -78.5%. This compound registered an AC50 cell viability with HCT116 [2] of 0.512 µM.
For `Cn1cc(-c2ccc(F)c(C(F)(F)F)c2)nc1C1CCN(c2ncnc3[nH]ncc23)CC1` the same measures were -40.4% and 16.6 µM.
The matching figures for `Cn1ncc(Cl)c1-c1cc(C(=O)N[C@H](CN)Cc2cccc(F)c2)sc1Cl`: -103% and 14.8 µM.
On to `Cc1nnn(C)c1-c1cnc2c3ccc(C(C)(C)O)cc3n([C@H](c3ccccc3)C3CCOCC3)c2c1`, for which, in the assay on HCT116 [1], the efficacy is -82.9%. In the assay on HCT116 [2], this compound displayed an AC50 cell viability of 0.0186 µM.
For `C[S+](=O)([O-])c1cccc(CNc2nc(Nc3ccc4c(c3)CCC(=O)N4)ncc2C(F)(F)F)c1` the same measures were -71.5% and 5.9 µM.
In the case of `O=C(NCc1ccncc1)C12C[C@H]3C[C@@H](C1)CC(c1ccc(Cl)cc1)(C3)C2`, in the assay with HCT116 [1], the efficacy is -52.9%. The AC50 cell viability with HCT116 [2] was 20.9 µM.
For `FC(F)(F)C1=CC=C2C(SCCCCCO\C3=C\O\C(CN4CCOCC4)=C/C3=O)=CC=NC2=C1` the same measures were -67.7% and 18.6 µM.
`O=C(Nc1cccnn1)N1CCC(=Cc2cccc(Oc3ccc(C(F)(F)F)cn3)c2)CC1`: the efficacy in the assay on HCT116 [1] was -72.6%. This compound had an AC50 cell viability in the assay with HCT116 [2] of 14.8 µM.
For `FC1=CC2=C3[N](CCN(CC3=C1)C(=O)N4CCCCC4)C=C2C/5=C(C(=O)NC5=O)\C6=CN=C7C=CC=C[N]67` the same measures were -108% and 11.8 µM.
For `NC(=O)c1cccc2nc(-c3ccc([C@H]4CCCN4)cc3F)[nH]c12` the same measures were -67.3% and 10.5 µM.
For the compound `NC(=O)c1ccccc1Nc1ccnc(Nc2cccc(O)c2)n1`, in the assay with HCT116 [1], the efficacy is -95.9%. The compound further registered an AC50 cell viability in the assay with HCT116 [2] of 5.9 µM.
The matching figures for `Nc1nccc(-c2c(-c3ccc(F)cc3)ncn2C2CCN(Cc3ccon3)CC2)n1`: -56.5% and 13.2 µM.
The matching figures for `NCC1CCN(c2nccc(-c3ccc4ccccc4c3)n2)CC1`: -126% and 14.8 µM.
The matching figures for `NC[C@@](O)(c1ccc(Cl)cc1)c1ccc(-c2cn[nH]c2)cc1`: -109% and 7.42 µM.
In the case of `N[S+]([O-])(=O)C1=CC=C(NC/2=C/C(=O)C3=CC=CC=C3C2=O)C=C1`, the efficacy with HCT116 [1] is -81.9%. In addition, in the assay with HCT116 [2], the AC50 cell viability stood at 10.5 µM.
For `O=C(NCCCNc1nc(Nc2ccc(N3CCOCC3)cc2)ncc1C1CC1)C1CCC1` the same measures were -84.5% and 5.9 µM.
For `Oc1ccc(-c2nc(-c3ccncc3)c(-c3ccc(F)cc3)[nH]2)cc1` the same measures were -80% and 23.5 µM.
For `OCCC#Cc1nc(-c2ccc(F)cc2)c(-c2ccncc2)n1CCCc1ccccc1` the same measures were -64.2% and 23.5 µM.
